A short description of data set [1]: Coating of gold nanoparticles (TEM). As to conditions: citrate-modified AuNP aqueous solution. As for the experimental part:
Colloidal gold was prepared by reducing HAuCl4 with sodium citrate. 50 mL of a 0.01% HAuCl4 (0.243 mM) aqueous solution was boiled vigorously while stirring in a round-bottom flask equipped with a reflux condenser. Then, 10 mL of a 0.1% sodium citrate aqueous solution (3.4 mM) was added to the boiling HAuCl4 solution. The color of the solution turned from yellow to deep purple and then to wine red within 3 minutes. The mixture was boiled further for 10 minutes and cooled to room temperature while continuously stirring overnight. The concentration of the colloidal gold was determined with a spectrophotometer.
It was investigated whether the gold nanoparticles (AuNP) prepared above are coated with the peptide-molecule conjugates prepared in Examples 1-3 (SAB1 to SAB3). First, the peptide-molecule conjugates of Examples 1-3 (SAB1 to SAB3) were dispersed in distilled water to prepare 20 μM aqueous solutions, respectively. After sonicating the SAB1 to SAB3 aqueous solutions (20 μM, 50 μL) for at least 5 minutes, they were immediately added to the AuNP solution (200 μL), respectively. […] After washing twice, the solution was analyzed by CD and TEM.

Data set [2] concerns EGFP mRNA. Description: EMSA of nanostructure formation with EGFP mRNA. Type of data set: binding. As to conditions: EMSA; mRNA concentration fixed; incubated overnight. On the procedure: (§1) When a nanostructure was formed through self-assembly by reacting a peptide-molecule conjugate (SAB) with a nucleic acid material (dsDNA or mRNA), agarose gel EMSA was conducted to measure their interactions, binding ratio, stability, etc.
First, the nucleic acid material of a fixed concentration (100 fmol mRNA) was reacted with the peptide-molecule conjugate (SAB) of various concentrations. Immediately before mixing with the nucleic acid material, the peptide-molecule conjugate (SAB) was sonicated for 5 minutes to prevent self-aggregation. The sonicated peptide-molecule conjugate (SAB, 5 μL) was added to the nucleic acid material ([…]) and a nanostructure was prepared by adding distilled water. The sample was prepared by snap cooling. Specifically, after heating at 70° C. for 10 minutes and snap-cooling on ice, the prepared sample was stored at room temperature. The stored sample was mixed with 2 μL of 60% glycerol. Electrophoresis was performed at 100 V for 60 minutes on 0.8% agarose gel using 1×TBE. The band was observed after staining with SYBR™ Gold nucleic acid gel stain (Invitrogen, Waltham, USA).
After sonicating the peptide-molecule conjugate (SAB-gn, n=1 to 6) aqueous solution for 5 minutes, it was immediately mixed with an EGFP mRNA (200 μL) solution. […] An […] nanostructure was prepared as follows by mixing the peptide-molecule conjugate (SAB-gn, n=1 to 6) with the EGFP mRNA. […] The EGFP mRNA and the peptide-molecule conjugate (SAB-gn, n=1 to 6) were mixed at a charge ratio (+/−) of 0, 0.008, 0.016, 0.031, 0.063, 0.125, 0.25, 0.5, 1, 2, 4, 8, 16, 32 or 50.
After incubating the mixture solution overnight and centrifuging at 16,100 g for 30 minutes, the mixture was resuspended in deionized water. After washing twice, the resulting nanostructure was analyzed by EMSA.
After incubating the mixture solution overnight and centrifuging at 16,100 g for 30 minutes, the mixture was resuspended in deionized water.
After heating the mixed solution for 10 minutes at 70° C., it was immediately snap-cooled on ice. RiboRuler Low Range RNA Ladder and RiboRuler High Range RNA Ladder (Thermo Scientific, Waltham, USA) were used on the two lanes on the left side of agarose gel in order to identify the relative locations of the EGFP mRNA bands. The bands of the RiboRuler Low Range RNA Ladder correspond to 1000, 800, 600, 400, 300, 200 and 100 bases, from top to bottom, and the bands of the RiboRuler High Range RNA Ladder correspond to 6000, 4000, 3000, 2000, 1500, 1000, 500 and 200 bases, from top to bottom. Then, the mixtures with charge ratios (+/−) of 0, 0.031, 0.063, 0.125, 0.25, 0.5, 1, 2, 4, 8 and 16 were loaded in sequence.
After heating the mixed solution for 10 minutes at 70° C., it was immediately snap-cooled on ice. RiboRuler High Range RNA Ladder (Thermo Scientific, Waltham, USA) was used on the left side of agarose gel in order to identify the relative locations of the EGFP mRNA bands. The bands of the RiboRuler High Range RNA Ladder correspond to 6000, 4000, 3000, 2000, 1500, 1000, 500 and 200 bases, from top to bottom. Then, the samples were loaded with charge ratios (+/−) of 00, 0.063, 0.125, 0.25, 0.5, 1, 2, 4, 8, 16 and 32 in sequence.

The test system of data set [3] is linear double-stranded DNA (dsDNA) (7528 base pairs). Nature of the data set: EMSA of nanostructure formation with dsDNA. Type of data set: binding. On the procedure:
as §1
For this, a pTWIN1 plasmid DNA vector was purchased from New England BioLabs (Ipswich, USA), genetically recombined to express a specific protein (Rev), and then linearized with a BamH1 restriction enzyme purchased from the same company to prepare a linear double-stranded DNA (dsDNA) (7528 base pairs). The peptide-molecule conjugates of Examples 1-3 (SAB1 to SAB3) were dispersed in distilled water to prepare 20 μM aqueous solutions. The SAB1 to SAB3 aqueous solutions (20 μM, 50 μL) were sonicated for at least 5 minutes and then immediately added to the dsDNA solution (200 μL). […] A SAB2/dsDNA nanostructure was prepared by incubating the mixture overnight. Then, after centrifuging at 16,100 g for 30 minutes, the nanostructure was resuspended in deionized water. After washing twice, the nanostructure was analyzed by TEM and EMSA.
(A gel shift assay detects complexes by their altered migration in electrophoresis.)

As to “Ac-(PEG8)-AELAALEAELAALE-(Ahx)2-K-(Ahx)2-KLAALKAKLAALKAG-(PEG8)-NH2 [SAB2]”, in data set [1], the “dispersibility of coated gold nanoparticles” value is recorded as “precipitates were formed due to aggregation of the gold nanoparticles”. Besides, the “+/− (optimum charge ratio of EGFP mRNA and conjugate showing completely delayed electrophoretic mobility)” value in data set [2] turned out to be 30. Also, the “nanostructure formation with dsDNA” value in data set [3] is on record as “best result”. Moreover, in data set [3] (dsDNA concentration fixed), the “charge ratio (+/−) from which delay of EMSA band was observed” value was found to be 0.031 and the “charge ratio at which SAB2/dsDNA nanostructure was prepared through self-assembly” value was found to be 0.5.

The values are drawn from US20240116986A1, “FUSION PEPTIDES CONTAINING DIMERIC ALPHA-HELICES, PEPTIDE-MOLECULARCONJUGATES CONTAINING THE SAME AND NUCLEIC ACID DELIVERY COMPOSITIONSCONTAINING THE SAME” (Artprobio Co., Ltd., priority 2022, published 2024).
